The first data set is described as follows: physchem.
Details: not given
The data set is classed as physicochemical. The procedure: ^a) Note regarding the determination of the log P values and mass detection: The log P values given were determined in accordance with EEC Directive 79/831 Annex V.A8 by HPLC (High Performance Liquid Chromatography) on a phase inversion column (C18). Agilent 1100 LC system; 50*4.6 Zorbax Eclipse Plus C18 1.8 micron; eluent A: acetonitrile (0.1% formic acid); eluent B: water (0.09% formic acid); linear gradient from 10% acetonitrile to 95% acetonitrile in 4.25 min, then 95% acetonitrile for a further 1.25 min; oven temperature 55° C.; flow: 2.0 ml/min. The mass detection is carried out via an Agilend MSD system.
In the case of `Cn1nc(OCC(F)(F)F)c(F)c1C(=O)Nc1ccc(Cl)c(C(=O)NC2CC2)c1` [Ik-260], the logP is reported as 2.75^a).

Take `Cn1nc(C(F)(F)C(F)(F)F)c(C(F)(F)F)c1C(=O)Nc1ccc(Cl)c(C(=O)OCC(=O)NC(N)=O)c1` [Ik-110]: the logP was 3.10^a).

As for `Cc1nc(C(F)(F)C(F)(F)F)ncc1C(=O)Nc1ccc(Cl)c(C(=O)NCC=CCl)c1` [Ib-25], the logP is 3.2^a).

Turning to `Cc1nc(C(F)(F)F)ncc1C(=O)Nc1ccc(Cl)c(C(=O)NCC=CCl)c1` [Ib-21], the logP is reported as 2.69^a).

Regarding `Cn1nc(C(F)(F)C(F)(F)F)c(C(F)(F)F)c1C(=O)Nc1cc(F)c(F)c(C(=O)NCC(F)(F)F)c1` [Ik-141], the logP is 3.89^a).

Consider `CC(C)N(C(=O)c1c(C(F)(F)F)c(C(F)(F)C(F)(F)F)nn1C)c1ccc(Cl)c(C(=O)NC2CC2)c1` [Ik-137], for which the logP is reported as 3.74^a).

In the case of `COCN(C(=O)c1c(C(F)(F)F)c(C(F)(F)C(F)(F)F)nn1C)c1ccc(Cl)c(C(=O)NC2CC2)c1` [Ik-135], the logP is recorded as 3.51^a).

Regarding `CN(C)C(=O)COC(=O)c1cc(NC(=O)c2c(C(F)(F)F)c(C(F)(F)C(F)(F)F)nn2C)ccc1Cl` [Ik-108], the logP is 3.57^a).

With `Cn1nc(C(F)(F)C(F)(F)F)c(C(F)(F)F)c1C(=O)Nc1cc(C(=O)NCC(F)(F)F)c(F)cc1Cl` [Ik-151], the logP was 3.83^a).

For `O=C(NC1CC1)c1cc(NC(=O)c2cnc(C(F)(F)C(F)(F)F)nc2C(F)(F)C(F)(F)F)ccc1Cl` [Ib-33], the logP was 3.64^a).

For the molecule `CC(NC(=O)c1cc(NC(=O)c2c(I)c(C(F)(F)C(F)(F)C(F)(F)C(F)(F)F)nn2C)ccc1Cl)C1CC1` (centres unmarked) [Ik-267], the logP is on record as 4.38^a).

In the case of `CC(C)NC(=O)c1cc(NC(=O)c2nccc(C(F)(F)F)c2Cl)ccc1Cl` [Ie-2], the logP is reported as 2.72^a).

As for `CNC(=O)c1cc(NC(=O)c2ccc(C(F)(F)F)nc2Cl)ccc1Cl` [Ir-6], the logP was 2.16^a).

In the case of `Cn1nc(C(F)(F)C(F)(F)F)c(C(F)(F)F)c1C(=O)Nc1ccc([N+](=O)[O-])c(C(=O)NCC(F)(F)F)c1` [Ik-181], the logP is recorded as 3.58^a).

On to `CC(C)n1nc(C(F)(F)C(F)(F)F)c(C(F)(F)F)c1C(=O)Nc1ccc(Cl)c(C(=O)NC2CC2)c1` [Ik-218], for which the logP is listed as 4.02^a).

Regarding `CSc1c(Br)cc(NC(=O)c2c(C(F)(F)F)c(C(F)(F)C(F)(F)F)nn2C)cc1C(=O)NCC(F)(F)F` [Ik-200], the logP is 4.22^a).

As to `Cn1nc(C(F)(F)C(F)(F)F)c(C(F)(F)F)c1C(=O)Nc1cc(Cl)c(I)c(C(=O)NC2CC2)c1` [Ik-204], the logP is listed as 3.84^a).

As for `O=C(NC1CC1)c1cc(NC(=O)c2cnc(C(F)(F)C(F)(F)F)nc2C2CC2)ccc1Cl` [Ib-30], the logP is 3.28^a).

Take `COCn1nc(C(F)(F)C(F)(F)F)c(C(F)(F)F)c1C(=O)Nc1ccc(Cl)c(C(=O)NC2CC2)c1` [Ik-219]: the logP is recorded as 3.50^a).

With `Cn1nc(C(F)(F)C(F)(F)F)c(C(F)(F)F)c1C(=O)Nc1cc(C(=O)NC2CC2F)c(Cl)cn1` (centres unmarked) [Ik-314], the logP is reported as 3.14^a).

As for `Cn1nc(C(F)(F)C(F)(F)F)c(C(F)(F)F)c1C(=O)Nc1cc(F)c(I)c(C(=O)NCC=CCl)c1` [Ik-224], the logP is 3.99^a).

On to `Cn1nc(C(F)(F)C(F)(F)F)c(C(F)(F)F)c1C(=O)Nc1cc(C(=O)NC2CC2)c(F)cc1F` [Ik-145], for which the logP is listed as 3.32^a).

Consider `Cc1nc(C(F)(F)C(F)(F)F)ncc1C(=O)Nc1ccc(Cl)c(C(=O)NC2CC2)c1` [Ib-23], for which the logP was 2.76^a).

`Cn1nc(C(F)(F)C(F)(F)F)c(C(F)(F)F)c1C(=O)Nc1cc(Cl)c(I)c(C(=O)NCC(F)(F)F)c1` [Ik-206]: the logP is given as 4.18^a).

On to `CSc1c(Cl)cc(NC(=O)c2c(C(F)(F)F)c(C(F)(F)C(F)(F)F)nn2C)cc1C(=O)NCc1ccccc1` [Ik-202], for which the logP is 4.39^a).

With `CCSCC(C)NC(=O)c1cc(NC(=O)c2c(C(F)(F)F)c(C(F)(F)C(F)(F)F)nn2C)ccc1Cl` (centres unmarked) [Ik-89], the logP is 4.09^a).

With `CCN(CC)C(=O)COC(=O)c1cc(NC(=O)c2c(C(F)(F)F)c(C(F)(F)C(F)(F)F)nn2C)ccc1Cl` [Ik-109], the logP is reported as 4.11^a).

With `Cn1nc(C(F)(F)C(F)(F)F)c(C(F)(F)F)c1C(=O)Nc1cc(C(=O)NCc2ccccc2)c(Cl)cc1Cl` [Ik-150], the logP is recorded as 4.23^a).

Turning to `O=C(NCc1ccccc1)c1cc(NC(=O)c2cnc(C(F)(F)C(F)(F)F)nc2C(F)(F)F)ccc1Cl` [Ib-11], the logP is recorded as 3.78^a).

Take `Cn1nc(C(F)(F)F)c(Br)c1C(=O)Nc1ccc(Cl)c(C(=O)NCc2ccccc2)c1` [Ik-23]: the logP was 3.44^a).

Turning to `CSc1c(F)cc(NC(=O)c2c(C(F)(F)F)c(C(F)(F)C(F)(F)F)nn2C)cc1C(=O)NCC(F)(F)F` [Ik-193], the logP is on record as 3.90^a).

As for `Cn1nc(OC(F)F)c(Br)c1C(=O)Nc1ccc(Cl)c(C(=O)NC2CC2)c1` [Ik-237], the logP is 2.51^a).

In the case of `Cn1nc(C(F)(Cl)C(F)(F)F)c(Br)c1C(=O)Nc1ccc(Cl)c(C(=O)NC2CC2)c1` (centres unmarked) [Ik-16], the logP is listed as 3.35^a).

Take `Cn1nc(C(F)(F)OC(F)(F)C(F)(F)OC(F)(F)F)c(I)c1C(=O)Nc1ccc(Cl)c(C(=O)NC2CC2)c1` [Ik-264]: the logP was 3.66^a).

Turning to `CC#CC(C)(C)NC(=O)c1cc(NC(=O)c2c(C(F)(F)F)c(C(F)(F)C(F)(F)F)nn2C)ccc1Cl` [Ik-81], the logP is recorded as 4.03^a).

Consider `Cn1nc(C(F)(F)C(F)(F)F)c(C(F)(F)F)c1C(=O)Nc1cc(F)c(Cl)c(C(=O)NC2CC2)c1` [Ik-188], for which the logP is recorded as 3.59^a).

With `Cn1nc(C(F)(F)C(F)(F)F)c(C(F)(F)F)c1C(=O)Nc1cc(F)cc(C(=O)NCc2ccccc2)c1` [Ik-162], the logP was 4.05^a).

As to `CSc1c(F)cc(NC(=O)c2c(C(F)(F)F)c(C(F)(F)C(F)(F)F)nn2C)cc1C(=O)NCc1ccccc1` [Ik-192], the logP is reported as 4.15^a).

Take `Cn1nc(OC(F)F)c(I)c1C(=O)Nc1ccc(Cl)c(C(=O)NCC(F)(F)F)c1` [Ik-241]: the logP is on record as 2.92^a).

In the case of `Cn1nc(C(F)(F)C(F)(F)F)c(C(F)(F)F)c1C(=O)Nc1ccc(F)c(C(=O)NC2CC2F)c1` (centres unmarked) [Ik-168], the logP is reported as 3.35^a).

On to `Cn1nc(C(F)(F)OC(F)(F)C(F)(F)OC(F)(F)F)c(Br)c1C(=O)Nc1ccc(Cl)c(C(=O)NC2CC2)c1` [Ik-117], for which the logP is listed as 4.31^a).

Take `Cn1nc(C(F)(F)C(F)(F)F)c(C(F)(F)F)c1C(=O)Nc1cc(C(=O)NC2CC2)c(Cl)cn1` [Ik-318]: the logP was 3.24^a).

Consider `Cn1nc(C(F)(F)C(F)(F)F)c(C(F)(F)F)c1C(=O)Nc1cc(F)c(Cl)c(C(=O)NCC(F)(F)F)c1` [Ik-190], for which the logP is listed as 3.91^a).

With `Cn1nc(C(F)(F)C(F)(F)C(F)(F)C(F)(F)F)c(I)c1C(=O)Nc1ccc(Cl)c(C(=O)NCC=CCl)c1` [Ik-269], the logP is 4.27^a).

As for `O=C(NCC(F)(F)F)c1cc(NC(=O)c2cnc(C(F)(F)C(F)(F)F)nc2C(F)(F)F)ccc1Cl` [Ib-9], the logP is listed as 3.53^a).

The same data set, now with this note: HPLC method a), eluent acetonitrile/water with formic acid; read-out: logP.
Consider `Cn1nc(C(F)(F)C(F)(F)C(F)(F)F)c(Br)c1C(=O)O` [4-Bromo-1-methyl-3-heptafluoropropyl-1H-pyrazole-5-carboxylic acid], for which the chromatographic logP was 2.26.

The data set is the same for the next values; noted with them: HPLC phase inversion (reversed-phase) C18 column, HPLC method a), eluent acetonitrile/water with formic acid; read-out: logP.
On to `Cn1nc(C(F)(F)OC(F)(F)OC(F)(F)F)c(Br)c1C(=O)O` [4-Bromo-3-{[(difluoro(trifluoromethoxy)methoxy](difluoro)methyl}-1-methyl-1H-pyrazole-5-carboxylic acid], for which the chromatographic logP came to 3.56.

Consider `Cn1nc(C(F)(F)C(F)(F)F)c(Br)c1C(=O)O` [4-Bromo-1-methyl-3-pentafluoroethyl-1H-pyrazole-5-carboxylic acid], for which the chromatographic logP is 4.69.

For the molecule `Cn1ccc(C(F)(F)OC(F)(F)OC(F)(F)F)n1` [3-{[Difluoro(trifluoromethoxy)methoxy](difluoro)methyl}-1-methyl-1H-pyrazole], the chromatographic logP was found to be 3.79.

As to `O=C(NC1CC1)c1cc(NC(=O)c2ncc(Cl)cc2C(F)(F)F)ccc1Cl` [5-chloro-N-[4-chloro-3-(cyclopropylcarbamoyl)phenyl]-3-(trifluoromethyl)pyridine-2-carboxamide], the chromatographic logP was 2.55.

Regarding `CCOC(=O)c1c(C)nc(C(F)(F)C(F)(F)F)nc1C` [Ethyl 4,6-dimethyl-2-(pentafluoroethyl)pyrimidine-5-carboxylate], the chromatographic logP was found to be 3.68.

For the molecule `CCOC(=O)c1cnc(C(F)(F)C(F)(F)F)nc1C(F)F` [Ethyl 4-(difluoromethyl)-2-(pentafluoroethyl)pyrimidine-5-carboxylate], the chromatographic logP was 3.42.

Turning to `Cn1nc(C(F)(F)C(F)(F)F)c(C(F)(F)F)c1C(=O)Nc1cc(C(=O)O)c(Cl)cn1` [Ik-129, 5-Chloro-2-({[1-methyl-3-(pentafluoroethyl)-4-(trifluoromethyl)-1H-pyrazol-5-yl]carbonyl}amino)isonicotinic acid], the chromatographic logP was determined as 2.82.

Regarding `Cn1nc(C(O)C2CC2)c(C(F)(F)F)c1C(=O)Nc1ccc(Cl)c(C(=O)NC2CC2)c1` (centres unmarked) [N-[4-chloro-3-(cyclopropylcarbamoyl)phenyl]-3-[cyclopropyl(hydroxy)methyl]-1-methyl-4-(trifluoromethyl)-1H-pyrazole-5-carboxamide], the chromatographic logP was 2.

Take `COC(=O)c1cc(NC(=O)c2c(C(F)(F)F)c(C(F)(F)C(F)(F)F)nn2C)ncc1Br` [methyl 5-bromo-2-({[1-methyl-3-(pentafluoroethyl)-4-(trifluoromethyl)-1H-pyrazol-5-yl]carbonyl}amino)-isonicotinate]: the chromatographic logP stood at 4.04.

Staying with this data set, now noted: HPLC phase inversion (reversed-phase) C18 column, HPLC on C18 phase inversion column, method a); read-out: logP.
In the case of `Cn1nc(C(F)(F)C(F)(F)F)c(C(F)(F)F)c1C(=O)Nc1cc(C(=O)O)c(Cl)cn1` [Ik-129, 5-Chloro-2-({[1-methyl-3-(pentafluoroethyl)-4-(trifluoromethyl)-1H-pyrazol-5-yl]carbonyl}amino)isonicotinic acid], the chromatographic logP was determined as 2.82.

These data come from US8946234B2, “Halogen-substituted compounds” (Bayer CropScience AG, priority 2008, dated 2015).
